Laboratory results reported in patent US5698541A, “2,4-diphosphonoglutaric acid derivatives, processes for their production and pharmaceutical agents containing these compounds” (Boehringer Mannheim GmbH, priority 1994, dated 1997).

Test system: non-stimulated bone resorption
Assay: Inhibition of non-stimulated bone resorption by determining the excretion of [3H]-tetracycline in urine
Type: in vivo
Conditions: rats, subcutaneous, 2 × 200 mg/kg (8 a.m. and 5 p.m. on sixth day of urine collection); reduced [3H]-tetracycline excretion in urine on eighth day
Description: Inhibition of non-stimulated bone resorption by determining the excretion of [^3 H]-tetracycline in urine:
From birth onwards rats received a twice-weekly injection of increasing amounts of a solution of 3.7×10^5 Bq/ml (10 μCi/ml) [7-^3 H]-tetracycline ([^3 H]TC); New England Nuclear, Boston, Mass.) with a specific activity of 679 mCi/mmol. The volume per injection is increased from 50 μl/week to 250 μl in the fifth week and kept at this level for a further week. The total amount of administered [^3 H]TC was 20 μCi per rat. 51-day-old rats are transferred to individual metabolic cages and received a group feeding with feed which contained 0.5% Ca and 0.35% P. This feed was produced by addition of appropriate amounts of calcium and phosphate (SODI 2134, "Klingenthalmuhle"). The animals received distilled water ad libitum during the entire duration of the experiment. Collection of 24 hour urine was begun after 61 days. The urine was collected daily at 11 o'clock; the animals also received food at this time. On the sixth day after the start of the urine collection, the animals received subcutaneous injections of the substance (at 8 a.m. and 5 p.m.). […] The ^3 H-TC in urine is determined by liquid scintillation by adding 10 ml of the scintillator Pico-Fluor 30 (Packard International, Zurich, Switzerland) to 1 ml of the urine. […]

SMILES	% rel. inhibition/dosage
NCCCCC(CC(C(=O)O)P(=O)(O)O)(C(=O)O)P(=O)(O)O (centres unmarked) [Example 5]	45%
O=C(O)C(CC(CCCN1CCCC1)(C(=O)O)P(=O)(O)O)P(=O)(O)O (centres unmarked) [Example 4, 2,4-diphosphono-2-pyrrolidinopropylglutaric acid]	37%
